Columns and labels:
U1 cells = experiment: U1 cell viability (Trypan-blue exclusion); assay type: cell-based, human; conditions: 5 μM calpastat, 96 hr; from 40% without
Method: U1 is a human promonocytic cell line that is chronically infected with HIV-1 and that constitutively expresses low levels of HIV-1. […] In the present experiment, 1×10^6 cells/ml were treated with various dosages of calpastat and incubated for one hour at 37° C. After incubation, various concentrations of Tpg were added to the calpastat-treated cells and aliquoted into a 24-well plate. To observe the stimulation of HIV-1 activity by Tpg, equivalent numbers of cells were treated with Tpg alone. The cells were then incubated at 37° C. for up to four days, and supernatants from the cell culture were collected each day to measure HIV-1 activity. The viability of cells treated with both Tpg and calpastat were determined each day by Trypan-blue exclusion test. The HIV-1 activity in the collected supernatants was determined by measuring the HIV-1 p24 core antigen protein by ELISA (Dupont Medical Products, Boston, Mass.) according to the manufacturer's instructions.
In another series of experiments, U1 cells, which are latently infected with HIV-1 provirus, were plated at 10^6 cells/well in 1 ml of medium and treated with varying concentrations of either calpastat (FIG. 7E) or calpeptin (benzyloxycarbonyl-leucyl-norleucinal) (FIG. 7F) for 45 minutes before addition of thapsigargin (4 nM final concentration). The viability of U1 monocytes was 90% at 48 hours of thapsigargin (4 nM) treatment, in the presence or absence of calpain inhibitors. After 48 hours of stimulation, HIV-1 p24 antigen levels were determined in 200 μl of tissue culture supernatant, using a p24 ELISA (DuPont). All assays were performed on triplicate cultures. Mean values and standard deviations are shown for each concentration of inhibitor (FIGS. 7E-7F).

U937 cells = experiment: Chemokine production of thapsigargin-stimulated U937 cells; assay type: cell-based; conditions: 5 nM calpastat
Method: peptides can inhibit chemokine production in vitro. The effect of […] on chemokine production was tested as follows. […] The chemokines (MIP-1α, MIP-1P and RANTES) in the supernatants of U937 cells were assayed using QuantikineTM kits and as described by R&D Systems (Minneapolis, Minn.). […] Thus, […] be used to reduce production of inflammatory cytokines and treat inflammatory disorders.

H-AAVALLPAVLLALLAPEKLGERDDTIPPEYRELLEKKTGV-OH [Calpastat]
viability of U1 cells in 4 nM Tpg (U1 cells): 90%
reduction of production of chemokines (MIP-1α, MIP-1P and RANTES) (U937 cells): about one third

Reference: patent US6867186B2, “Cell-permeable protein inhibitors of calpain” (New England Medical Center Hospital, priority 1997, dated 2005)
